Measured values taken from paper PMC8213153 (PLoS ONE, 2021).
In brackets after ≈: the same amount, converted by molar mass. Where two headings read alike, the source gives them in different places.

Columns and labels:
Type in all cases: cell-based
IL-6 = IL-6 level of virus-infected Vero cells (ELISA)
Method: (§1) To enable measurement of IL-6, IL-10 and TNF-α levels, the culture medium of the treated cells was collected in sterile micro-tubes and centrifuged at 3,500 rpm for 20 minutes. The supernatants were carefully collected and diluted with aquadest at a 1:5 volume ratio and vortexed until homogenous. The samples were deposited onto a well-plate, added to ELISA reagents (Bioassay Technology Laboratory, Shanghai, China), and incubated at 37°C for 60 minutes. Reagent substrate solution was then added to the well and incubated for ten minutes at 37°C. The samples were measured for antigen concentration using the optical density (OD) plotted into the standard curves of IL-6, IL-10, and TNF-α.

SARS-CoV-2 virus = experiment: microbe, parasite or virus in culture; conditions: for IC50: Severe acute respiratory syndrome coronavirus 2, Vero
IL-10 = IL-10 level of virus-infected Vero cells (ELISA)
Method: as §1

TNF-α = TNF-α level of virus-infected Vero cells (ELISA)
Method: as §1

[1] = Cytotoxicity (MTT) assay of single and dual combinatory drugs; conditions: human
Method: Each tablet containing drugs was triturated and mixed until homogenous. Approximately 50 mg equivalent mass of drugs were weighed and added to dimethyl sulfoxide in order to solubilize the drugs. The suspension was sonicated in a water bath for 15 minutes before being added to Rosewell Park Memorial Institute (RPMI) media, sonicated again and vortexed to mix it until homogenous. The suspension was then filtered through a polycarbonate membrane with a pore size of 0.45 μm and then a pore size of 0.22 μm under aseptic conditions. The filtrate was mixed with 10% foetal bovine serum and penicillin streptomycin before being vortexed to produce a homogenous mixture to be used as a stock solution. The samples were prepared by diluting the stock solution of each drug with RPMI complete media at an appropriate level of dilution to produce a determined concentration. The dual combinatory drugs mixtures were prepared by mixing appropriate amounts of two drug stock solutions in order to produce a final concentration at the required level. The combinatory drugs were evaluated at both constant and non-constant ratios to evaluate their effects on the cytotoxicity, including; antagonistic, synergistic, or additive. A constant ratio of the mixture was achieved by adding drug solutions at the same ratio, thereby increasing each drug concentration, to produce dose escalation. In contrast, at a non-constant ratio, a fixed determined concentration of drug was added to increased doses of other drug solution in order to produce different levels of drug concentration.
The cytotoxic concentration (CC50) of drugs was performed by means of MTT assay at the Stem Cell Research and Development Center, Universitas Airlangga using human umbilical cord mesenchymal stem cells which had been obtained from human placenta tissue as approved by the Ethical Committee of Universitas Airlangga Hospital (Certificate number 101/KEH/2019 dated January 10, 2019). The cells were prepared as the primary cell culture and used for the cytotoxicity assay because of their sensitivity to chemicals. Cells were seeded into 96-well microplates at a concentration of 1x10^3 cells/well in 100 μL Alpha Minimum Essentials Medium (α-MEM, Gibco, USA) supplemented with 10% foetal bovine serum, 1% penicillin-streptomycin and 1% amphotericin-B. The plates were then incubated in a CO2 incubator at 37°C with 5% CO2 for 24 hours, at which point, the supernatant was replaced with α-MEM containing drugs at each concentration and incubated for a further 48 hours. Approximately 25μL of 3-(4,5-Dimethylthiazol-2-yl)-2,5-diphenyl tetrazolium-bromide (MTT) reagent at a concentration of 5mg/mL was subsequently added to each well and incubated for four hours at 37°C with 5% CO2. Purple formazan crystals were formed and observed under an inverted microscope. Dimethyl sulfoxide was added to each well with the complete solubilisation of formazan crystals subsequently being observed. The greater the number of formazan crystals formed, the lower the toxicity of the samples which were read for optical density of formazan using a multi reader at a measurement wavelength of 595 nm (Promega Glomax, USA). The CC50 value was analyzed by CompuSyn software (the ComboSyn Inc., accessed from www.combosyn.com).
In this study, the cytotoxicity assay was evaluated for single and dual combinatory drugs during a period of 48 hours of drug incubation. This assay was intended to evaluate the toxicity of dual combinatory drugs on normal cells. The combination ratios were calculated taking into consideration the usual therapeutic doses and plasma peak concentrations of the drugs. To determine this cytotoxicity, the drugs were mixed at both constant and non-constant ratios.

[2] = FAVIPIRAVIR-AZITHROMYCIN series, read-out: Cell Viability (%)
[3] = HYDROXYCHLOROQUINE-AZITHROMYCIN series, read-out: Cell Viability (%)
[4] = LOPIRITO-AZITHROMYCIN series, read-out: Viability Cell (%)
[5] = HYDROXYCHLOROQUINE-DOXYCYCLINE series, read-out: Cell viability (%)
[6] = LOPIRITO-DOXYCYCLINE series, read-out: Cell Viability (%)

Work on `CC[C@H]1OC(=O)[C@H](C)[C@@H](O[C@H]2C[C@@](C)(OC)[C@@H](O)[C@H](C)O2)[C@H](C)[C@@H](O[C@@H]2O[C@H](C)C[C@H](N(C)C)[C@H]2O)[C@](C)(O)C[C@@H](C)CN(C)[C@H](C)[C@@H](O)[C@]1(C)O` [AZI, Azithromycin] yielded an IL-6 (IL-6; 15 μg/mL, 24-h) of 14.55 ± 2.22 ng/L, an IL-6 (IL-6; 15 μg/mL, 72-h) of 565.92 ± 0.00 ng/L and an IL-6 (IL-6; 62.5 μg/mL, 24-h) of 15.92 ± 0.57 ng/L. The IL-6 (IL-6; 62.5 μg/mL, 48-h) was 33.47 ± 3.98 ng/L, the IL-6 (IL-6; 62.5 μg/mL, 72-h) was 529.11 ± 0.95 ng/L and the “IL-6 (in words)” value (IL-6; Table 5) was “reduced”. The “Virus Titer” value (SARS-CoV-2 virus; 15 μg/mL, 24-h) was 38.18 viral protein fg/mL, the “Virus Titer” value (SARS-CoV-2 virus; 62.5 μg/mL, 48-h) was 38.78 viral protein fg/mL and the IC50 (SARS-CoV-2 virus; 24h, MoI 0.04) was 51.9 µg/mL (≈ 69.3 µM). For the same compound, the IC50 (SARS-CoV-2 virus; 48h, MoI 0.04) was 19.6 µg/mL (≈ 26.2 µM), the IC50 (SARS-CoV-2 virus; 72h, MoI 0.04) was < 10 µg/mL and the IL-10 (IL-10; 15 μg/mL, 24-h) was 32.78 ± 1.18 pg/mL. For the same compound, the IL-10 (IL-10; 15 μg/mL, 48-h) was 152.34 ± 1.72 pg/mL, the IL-10 (IL-10; 15 μg/mL, 72-h) was 609.92 ± 1.48 pg/mL and the IL-10 (IL-10; 15 μg/mL, 24h) was “↗↗ (15 μg/mL; 24h)”. For the same compound, the IL-10 (IL-10; 62.5 μg/mL, 24-h) was 53.50 ± 1.85 pg/mL, the IL-10 (IL-10; 62.5 μg/mL, 48-h) was 91.92 ± 1.45 pg/mL and the “IL-10 levels (in words)” value (IL-10; Table 5) was “increased”. The TNF-α (TNF-α; 15 μg/mL, 24-h) was 6.994 ± 1.32 pg/mL, the TNF-α (TNF-α; 15 μg/mL, 48-h) was 478 ± 1.50 pg/mL and the TNF-α (TNF-α; 15 μg/mL, 72-h) was 777.34 ± 1.67 pg/mL. For the same compound, the TNF-α (TNF-α; 62.5 μg/mL, 24-h) was 86.00 ± 2.84 pg/mL, the TNF-α (TNF-α; 62.5 μg/mL, 48-h) was 381.30 ± 1.28 pg/mL and the TNF-α (TNF-α; 62.5 μg/mL, 72-h) was 641.33 ± 0.00 pg/mL. For the same compound, the TNF-α (TNF-α; 24, 48, and 72 hours, cell without concentration) was “No effects”, the “TNF-α levels (in words)” value (TNF-α; Table 5) was “no effects” and the viability at 48 h, 0.2 μg/mL [1, 2] was 115%. For the same compound, the viability at 48 h, 2 μg/mL [1, 2] was 107%, the viability at 48 h, 10 μg/mL [1, 2] was 110% and the viability at 48 h, 100 μg/mL [1, 2] was 139%. For the same compound, the viability at 48 h, 400 μg/mL [1, 2] was 90.9%, the viability at 48 h, 2 μg/mL [1, 3] was 94.2% and the viability at 48 h, 10 μg/mL [1, 3] was 104%. The viability at 48 h, 100 μg/mL [1, 3] was 110%, the viability at 48 h, 400 μg/mL [1, 3] was 68.9% and the viability at 48 h, 0.2 μg/mL [1, 4] was 84.7%. For the same compound, the viability at 48 h, 2 μg/mL [1, 4] was 81.2%, the viability at 48 h, 10 μg/mL [1, 4] was 84.6% and the viability at 48 h, 100 μg/mL [1, 4] was 89.5%. For the same compound, the viability at 48 h, 400 μg/mL [1, 4] was 81.2%.

With `C[C@H]1c2cccc(O)c2C(=O)C2=C(O)[C@]3(O)C(=O)C(C(N)=O)=C(O)[C@@H](N(C)C)[C@@H]3[C@@H](O)[C@@H]21` [DOXY, Doxycycline] the IL-6 (IL-6; 1 μg/mL, 24-h) was 21.06 ± 1.43 ng/L, the IL-6 (IL-6; 1 μg/mL, 48-h) was 36.93 ± 0.93 ng/L and the IL-6 (IL-6; 1 μg/mL, 72-h) was 40.56 ± 0.56 ng/L. For the same compound, the IL-6 (IL-6; 1 μg/mL, 24h) was “↘↘ (1 μg/mL; 24h)”, the IL-6 (IL-6; 15 μg/mL, 24-h) was 13.34 ± 0.86 ng/L and the IL-6 (IL-6; 15 μg/mL, 48-h) was 37.98 ± 0.94 ng/L. For the same compound, the IL-6 (IL-6; 15 μg/mL, 72-h) was 43.01 ± 0.05 ng/L, the “Virus Titer” value (SARS-CoV-2 virus; 1 μg/mL, 24-h) was 38.42 viral protein fg/mL and the “Virus Titer” value (SARS-CoV-2 virus; 15 μg/mL, 24-h) was 36.90 viral protein fg/mL. The “Virus Titer” value (SARS-CoV-2 virus; 15 μg/mL, 48-h) was 37.85 viral protein fg/mL, the “Virus Titer” value (SARS-CoV-2 virus; 15 μg/mL, 72-h) was 39.15 viral protein fg/mL and the “Drug concentration that produced an undetected virus copy number” value (SARS-CoV-2 virus; MoI 0.04, at 24, 48, and/or 72 hours' incubation) was 37.5 µg/mL. For the same compound, the IC50 (SARS-CoV-2 virus; 24h, MoI 0.04) was 18 µg/mL (≈ 40.5 µM), the IC50 (SARS-CoV-2 virus; 48h, MoI 0.04) was 4.7 µg/mL (≈ 10.6 µM) and the IC50 (SARS-CoV-2 virus; 72h, MoI 0.04) was 0.4 µg/mL (≈ 0.9 µM). The “Results (virus detection)” value (SARS-CoV-2 virus; at the drug concentration of the same line of Table 4, MoI 0.04) was 24, 48, 72h virus undetected, the IL-10 (IL-10; 1 μg/mL, 24-h) was 35.31 ± 0.22 pg/mL and the IL-10 (IL-10; 1 μg/mL, 48, 72h) was “↗↗ (1 μg/mL; 48, 72h)”. For the same compound, the IL-10 (IL-10; 1 μg/mL, 48-h) was 219.74 ± 0.08 pg/mL, the IL-10 (IL-10; 1 μg/mL, 72-h) was 415.82 ± 0.23 pg/mL and the IL-10 (IL-10; 15 μg/mL, 24-h) was 35.31 ± 1.53 pg/mL. For the same compound, the IL-10 (IL-10; 15 μg/mL, 48-h) was 219.74 ± 1.41 pg/mL, the IL-10 (IL-10; 15 μg/mL, 72-h) was 702.97 ± 0.07 pg/mL and the TNF-α (TNF-α; 1 μg/mL, 24-h) was 1.98 ± 0.00 pg/mL. The TNF-α (TNF-α; 1 μg/mL, 48-h) was 408.19 ± 0.77 pg/mL, the TNF-α (TNF-α; 1 μg/mL, 72-h) was 511.16 ± 3.09 pg/mL and the TNF-α (TNF-α; 1 μg/mL, 24h) was “↘↘ (1 μg/mL; 24h)”. The TNF-α (TNF-α; 15 μg/mL, 24-h) was 1.98 ± 0.84 pg/mL, the TNF-α (TNF-α; 15 μg/mL, 48-h) was 408.19 ± 0.84 pg/mL and the TNF-α (TNF-α; 15 μg/mL, 72-h) was 529.12 ± 0.46 pg/mL. It also gave a viability at 48 h, 0.2 μg/mL [1, 5] of 96.9%, a viability at 48 h, 2 μg/mL [1, 5] of 112% and a viability at 48 h, 10 μg/mL [1, 5] of 117%. The viability at 48 h, 100 μg/mL [1, 5] was 120%, the viability at 48 h, 400 μg/mL [1, 5] was 96.5% and the CC50 at 48 h ([1]; LOPIRITO-DOXY experiment (Fig 6), 48 hours, CompuSyn, n = 3, read-out: CC50) was 16500 µg/mL. For the same compound, the viability at 48 h, 0.2 μg/mL [1, 6] was 103%, the viability at 48 h, 2 μg/mL [1, 6] was 104% and the viability at 48 h, 10 μg/mL [1, 6] was 105%. For the same compound, the viability at 48 h, 100 μg/mL [1, 6] was 92.8% and the viability at 48 h, 400 μg/mL [1, 6] was 91.7%.
